Laboratory results published in US11072628B2, “Nucleoside analogues for the treatment of parasitic infections” (UNIVERSITEIT GENT, priority 2017, dated 2021).
pEC50: −log10 of the molar value. “Also recorded” adds a separate entry of the source. Like-named read-outs stand apart in the source and are kept apart here.

What was measured:
T. b. brucei Squib 427 [1] = conditions: comparison statement, not tested here; cited from earlier work
[2] = Cytotoxicity against MRC-5 fibroblasts; conditions: human, MRC-5 fibroblasts, cytotoxicity
Procedure: Cytotoxicity was assayed against MRC-5 fibroblasts. Results are depicted in Tables 4 and 5.

[3] = test system: T. cruzi Tulahuen CL2 β galactosidase strain; experiment: T. cruzi Tulahuen CL2 β galactosidase strain on MRC-5SV2 cells (CPRG); format: cell-based, Trypanosoma cruzi; conditions: Trypanosoma cruzi, TULAHUEN, MRC-5 SV2
Procedure: All cultures and assays were conducted at 37° C./5% CO2. […] The results were expressed as % reduction in parasite burdens compared to control wells from which an EC50 was calculated.

[4] = test system: T. vaginalis trophozoites (metronidazole susceptible G3 strain); experiment: Trichomonas vaginalis in vitro assay; format: cell-based; conditions: Trichomonas vaginalis, average of 2-5 independent replicates
Procedure: T. vaginalis trophozoites (metronidazole susceptible G3 strain) were grown in vitro in modified Diamond's media (MDM) with 10% heat inactivated horse serum (HIHS) acquired from Gibco Life Technologies. After medium preparation, the pH was adjusted to 6.3-6.4 employing 1.0 M aq. HCl. Parasites cultures were passaged every day by taking 1 mL of cell culture into a 25 mL bottle of fresh media to ensure the cells were kept at the appropriate concentration of ˜2×10^6 cells/mL. The culture flasks were filled completely and tightly capped to provide the cells with an anaerobic environment. The parasites were maintained in incubation at 37° C. When culturing in multiwell plates, the plates were sealed with Nescofilm® and inserted in BD GasPak EZ pouches (BD Diagnostics, UK) in order to create anaerobic conditions. Assays were performed with 5×10^4 trophozoites/well (100 μL) to which compound dilutions were added (100 μL). Outside wells of columns and rows were filled with 200 μL of sterile water. Plates were sealed with Nescofilm® and incubated under anaerobic conditions as described above. After 24 h, 30 μL of assay dye solution (resorufin) was added, and incubated for 1-2 h before being read using Fluostar Optima (BMG Labtech, UK) at an excitation wavelength of 544 nm and an emission wavelength of 620 nm.

T. brucei Squib 427 = experiment: In vitro drug susceptibility, T. brucei Squib 427 (resazurin); format: cell-based, Trypanosoma brucei brucei; conditions: for pEC50: Trypanosoma brucei
Procedure: (§1) All trypanosome strains were cultured in the standard HMI-9 medium supplemented with 10% fetal bovine serum (FBS) at 37° C. in a 5% CO2 atmosphere.

T. cruzi (Y-strain) = experiment: In vivo antiparasitic activity in mice (T. cruzi Y-strain); design: species or system Trypanosoma cruzi; conditions: 25 mg/kg PO b.i.d. for five days starting at 5 dpi
Procedure: The animals were allowed to acclimate for 7 days before starting the experiments. […] Age-matched non-infected mice were maintained under identical conditions. The animals were divided into the following groups (n=6): uninfected (non-infected and non-treated), untreated (infected but treated only with vehicle), and treated (infected and treated with the compounds). […] Formulations were prepared freshly before each administration. Only mice with positive parasitemia were used in the infected groups. Parasitemia was individually checked by direct microscopic counting of the number of parasites in 5 μl of blood (Panel A—FIG. 5), and mice were checked for mortality daily until 30 days post-treatment (corresponding to 40 dpi). Mortality is expressed as the percent cumulative mortality (CM; Panel B—FIG. 5).

T. brucei AnTAR1 PPYRE9 = experiment: In vivo antiparasitic activity in mice (T. brucei; stage-II disease model); design: species or system Trypanosoma brucei; conditions: treatment from 21 dpi for 5 days; 25 mg/kg PO b.i.d. or 25, 12.5 or 6.25 mg/kg s.i.d.
Procedure: The test compound, FH7429_D was formulated in 5% (V/V) Tween80 at 4 mg/mL and administered according to body weight (25 mg/kg bid., oral gavage) for 5 days. Treatment commenced at 21 dpi, in mice which had positive CNS involvement (BLI). Two reference groups: vehicle control as well as melarsoprol (120 mg/kg, s.i.d. topical for 3 days) were included. Topical melarsoprol formulation was prepared as following: 3.6% melarsprol in propylene glycol was used to prepare a 1.5% hydroxypropylcellulose (HPC) gel.
Parasitemia analysis was performed by microscopic evaluation of tail vein blood samples at 21 (before treatment initiation), 25, 28, 32 and 35 dpi. Bioluminescent imaging (BLI) was performed at 7, 14, 21, 28, 35, 43, 50 and 53 dpi. BLI experiments were performed as following: D-luciferin (15 mg/kg) was injected intraperitoneally, and mice were subsequently anaesthetized using isoflurane. The luminescent signal was measured over a 5 second as well as 5-minute exposure time, both for the ventral as well as the dorsal side of the animals.

T. b. brucei Squib 427 [5] = experiment: In vivo antiparasitic activity in mice (T. brucei; acute model); design: species or system Trypanosoma brucei brucei
Procedure: The test compound of the invention was formulated in 10% (V/V) PEG400 in water at 2 mg/mL and was freshly prepared at every administration. The test compound was administered orally (PO) b.i.d. for 5 days at 25 mg/kg. The reference drug suramin was formulated in PBS at 2.5 mg/mL and administered s.i.d. IP for 5 days at 10 mg/kg. Treatment was initiated ½ hour prior to the IP infection.

[6] = test system: T. b. rhodesiense STIB-900; experiment: In vitro drug susceptibility, T. b. rhodesiense STIB-900 (resazurin); format: cell-based, Trypanosoma brucei rhodesiense; conditions: Trypanosoma brucei, RHODESIENSE, read-out: T. brucei rhod. EC50
Procedure: as §1

[7] = Table 2, average of 2-3 independent replicates
[8] = read-out: T. brucei brucei EC50, Table 1, average of 2-4 independent determinations

| SMILES | blood parasitemia (T. cruzi (Y-strain)) | mortality caused by the infection (T. cruzi (Y-strain)) | pEC50 ([2]; MRC-5 EC50, Table 1) | pEC50 ([2]; MRC-5 EC50, Table 2) | pEC50 [3, 7] | pEC50 (T. brucei Squib 427; [8]) | pEC50 [6] | further results |
| --- | --- | --- | --- | --- | --- | --- | --- | --- |
| Nc1ncnc2c1ncn2[C@@H]1O[C@H](CO)C[C@H]1O [cordycepin, 3′-deoxy-adenosine] |  |  |  |  |  |  |  | clearance of T. brucei infection as a monotherapy (T. b. brucei Squib 427 [1]): unable to clear the infection |
| Nc1ncnc2c1c(-c1ccc(Cl)cc1)cn2[C@@H]1O[C@H](CO)[C@@H](O)[C@H]1O [TH1012, 4-amino-5-(4-chlorophenyl)-N7-(β-D-ribofuranosyl)-pyrrolo[2,3-d]pyrimidine] | full suppression of parasitemia | protected animals from mortality |  |  |  |  |  | pEC50 ([2]; MRC-5 EC50, Table 4): 4.57; pEC50 ([2]; MRC-5 EC50, Table 5): 4.57; pEC50 ([3]; Table 5, average of 2-4 independent replicates): 6.33; pEC50 ([4]; Table 6): 7.52; anti-trypanosomal activity against T. brucei, in words (T. brucei Squib 427): low μM EC50; pEC50 (T. brucei Squib 427; read-out: T.b. brucei EC50, Table 4, average of 2-6 independent determinations): 5.12 |
| Nc1ncnc2c1ccn2[C@@H]1O[C@H](CO)C[C@H]1O [FH7429_D, 4-amino-N7-(3′-deoxy-β-D-ribofuranosyl)-pyrrolo[2,3-d]pyrimidine] |  |  | < 4.19 | < 4.19 | < 4.19 | 7.30 | 9.30 | cure in stage-II HAT model (T. brucei AnTAR1 PPYRE9): considered cured; parasitemia (BLI or tail vein blood analysis) (T. brucei AnTAR1 PPYRE9): did not show any signs of parasitemia from 28 dpi onwards; parasitological cure (sub-inoculation in naive mice) (T. b. brucei Squib 427 [5]; animals surviving until day 21 post infection): total parasitological cure; also recorded: able cure an acute infection; clinical symptoms of trypanosomiasis / parasitemia (T. b. brucei Squib 427 [5]; infected mice, 5 consecutive days, test compound 25 mg/kg PO b.i.d. (FH7429_D also 10 mg/kg s.i.d. IP), suramin 10 mg/kg): no clinical symptoms of trypanosomiasis were observed; adverse drug effects (T. b. brucei Squib 427 [5]; mice, 5 days treatment): No signs of adverse drug effects were observed |
| Nc1ncnc2c1c(-c1ccc(Cl)cc1)cn2[C@@H]1O[C@H](CO)C[C@H]1O [FH8512, 4-amino-5-(4-chlorophenyl)-N7-(3′-deoxy-β-D-ribofuranosyl)-pyrrolo[2,3-d]pyrimidine] | suppress blood parasitemia | protect animals from mortality | 4.72 | 4.72 | 7.30 | 5.64 | 5.74 | pEC50 ([4]; Table 3): 6.77 |
